Laboratory results: patent US20080280891A1, “Anti-cancer agents and uses thereof” (Locus Pharmaceuticals, Inc., priority 2006, published 2008)
pIC50: −log10 of the molar value.

Columns and labels:
Type in all cases: cell-based
[1] = system: MCF-7 breast cancer cells; assay: Cell cycle assay (Example 163), G2/M block in MCF-7 cells; conditions: Homo sapiens, MCF7, 24 h, flow cytometry (PI), Table 2
Protocol: (§1) MCF-7 breast cancer cells and Jurkat T-cell leukemic cells were grown (and maintained) in EMEM and RPMI media, respectively, containing 10% fetal calf serum.
Cells were allowed to adhere for 24 hrs. After adherence, cell culture media was changed to that containing 0.5% FCS. Thirty minutes post-media change, test compounds were added at a concentration of 1 μM. Twenty-fours after test agent addition, cells were analyzed for cell cycle status as described below.
(§2) Cell cycle status was analyzed by flow cytometry. Briefly, cells were collected and washed with FACs buffer (Pharmingen) and resuspended and fixed in 1 mL of 80% ethanol for 1 hr. Cells were washed with FACs buffer and resuspended in propidium iodide(PI)/RNase staining buffer (Pharmingen). PI is a fluorescent dye that labels nucleic acids such as DNA. The fluorescence within a cell (in the presence of PI) is proportional to the amount of DNA within a cell. The cell content of DNA is an indices of status in the cell cycle. […] Cells in the S phase have DNA content that lies between these extremes.
(§3) For testing of cell cycle effects of test agents the percentage of cells within the G1 and G2/M phase were measured.

Hela cells = assay: Cell viability assay (WST-1), Hela cells; conditions: Homo sapiens, HeLa, WST-1, 48-72 hrs, 0.5% fetal calf serum
Protocol: (§4) Jurkat and Hela cells were cultured in RPMI and EMEM media, respectively, containing 0.5% fetal calf serum. Cells were plated in a volume of 100 μL in a 96 well format. Test compounds were included in the culture media at concentrations ranging from 1 nM to 10 μM for a period of 48-72 hrs. Cell viability was determined using the WST-1 calorimetric mitochondrial reduction assay. Briefly, 10 μL of WST-1 reagent was included in the culture well for a period of 1 to 4 hrs. The WST-1 reaction was read on a multiwell spectrophotometer as the difference in the absorbance between 450 nm and 600 nm (baseline). Absorbance was proportional to the number of living cells in the culture well. Concentration response curves and IC50 values were calculated using GraphPAD Prism graphing and curve fitting program.

Jurkat cells = assay: Cell viability assay (WST-1), Jurkat cells; conditions: Homo sapiens, WST-1, 48-72 hrs, 0.5% fetal calf serum
Protocol: as §4

[2] = system: Jurkat T-cell leukemic cells; assay: Cell cycle assay (Example 163), G2/M block in Jurkat cells; conditions: Homo sapiens, Jurkat, 24 h, flow cytometry (PI), Table 2
Protocol: as §1
Test agents were added a concentration of 0.1 μM. Twenty-fours after test agent addition, cells were analyzed for cell cycle status as described below.
as §2, §3

Row | pIC50 (Hela cells) | pIC50 (Jurkat cells) | Structure (SMILES) | activation at 1 µM [1] [%] | activation at 0.1 µM [2] [%]
1 | 4.52 to 6.00 | 4.52 to 6.00 | CN(C)c1cccc(-c2cc(O)cc(Nc3cccnc3)c2)c1 [3′-Dimethylamino-5-(pyridin-3-ylamino)-biphenyl-3-ol] | < 50 | < 50
2 | 6.00 to 9.00 | 6.00 to 9.00 | Cc1cncc(C(=O)c2cc(O)cc(-c3cccc4[nH]ccc34)c2)c1 [[3-Hydroxy-5-(1H-indol-4-yl)-phenyl]-(5-methyl-pyridin-3-yl)-methanone] | ≥ 50 | ≥ 50
3 | 4.52 to 6.00 | 6.00 to 9.00 | Oc1cc(Nc2cccnc2)cc(-c2ccc3[nH]ccc3c2)c1 [3-(1H-Indol-5-yl)-5-(pyridin-3-ylamino)-phenol] | < 50 | ≥ 50
4 | 6.00 to 9.00 | 4.52 to 6.00 | CC(O)(c1cccnc1)c1cc(O)cc(-c2cccc3[nH]ccc23)c1 (stereo not shown) [3-(1-Hydroxy-1-pyridin-3-yl-ethyl)-5-(1H-indol-4-yl)-phenol] | – | < 50
5 | 4.52 to 6.00 | – | Oc1cc(Nc2cccnc2)cc(-c2cccc3c2CCC3)c1 [3-Indan-4-yl-5-(pyridin-3-ylamino)-phenol] | < 50 | < 50
6 | < 5.52 | 4.52 to 6.00 | Oc1cc(Nc2cccnc2)cc(-c2ccc3c(c2)OCO3)c1 [3-Benzo[1,3]dioxol-5-yl-5-(pyridin-3-ylamino)-phenol] | – | < 50
7 | 4.52 to 6.00 | 4.52 to 6.00 | Oc1cc(Nc2cccnc2)cc(-c2ccc3cc[nH]c3c2)c1 [3-(1H-Indol-6-yl)-5-(pyridin-3-ylamino)-phenol] | < 50 | < 50
8 | 6.00 to 9.00 | 6.00 to 9.00 | Oc1cc(Nc2ccncc2)cc(-c2cccc3[nH]ccc23)c1 [3-(1H-Indol-4-yl)-5-(pyridin-4-ylamino)-phenol] | ≥ 50 | ≥ 50
9 | 4.52 to 6.00 | 6.00 to 9.00 | Oc1cc(Nc2cccnc2)cc(-c2cnc3ccccc3c2)c1 [3-(Pyridin-3-ylamino)-5-quinolin-3-yl-phenol] | < 50 | < 50
10 | 4.52 to 6.00 | 4.52 to 6.00 | COc1ccc(COc2cc(Nc3cccnc3)cc(-c3cccc4sccc34)c2)cc1 [[3-Benzo[b]thiophen-4-yl-5-(4-methoxy-benzyloxy)-phenyl]-pyridin-3-yl-amine] | – | –
11 | 6.00 to 9.00 | 6.00 to 9.00 | Oc1cc(Nc2cnccn2)cc(-c2cccc3[nH]ccc23)c1 [3-(1H-Indol-4-yl)-5-(pyrazin-2-ylamino)-phenol] | ≥ 50 | ≥ 50
12 | 4.52 to 6.00 | – | COc1cc(-c2cccc3[nH]ccc23)nc(Nc2cccnc2)n1 [[4-(1H-Indol-4-yl)-6-methoxy-pyrimidin-2-yl]-pyridin-3-ylamine] | < 50 | < 50
13 | < 5.52 | 4.52 to 6.00 | Oc1ccc(C(O)c2cccnc2)cc1C12CC3CC(CC(C3)C1)C2 (stereo not shown) [2-Adamantan-1-yl-4-(hydroxy-pyridin-3-yl-methyl)-phenol] | – | < 50
14 | 4.52 to 6.00 | 4.52 to 6.00 | CS(=O)(=O)Nc1cccc(-c2cc(O)cc(Nc3cccnc3)c2)c1 [N-[5′-Hydroxy-3′-(pyridin-3-ylamino)-biphenyl-3-yl]-methanesulfonamide] | ≥ 50 | < 50
15 | 6.00 to 9.00 | – | Oc1cc(Nc2ccccn2)cc(-c2cccc3[nH]ccc23)c1 [3-(1H-Indol-4-yl)-5-(pyridin-2-ylamino)-phenol] | < 50 | ≥ 50
16 | 6.00 to 9.00 | 4.52 to 6.00 | O=C(c1ccc(O)nc1)c1cc(O)cc(-c2cccc3[nH]ccc23)c1 [[3-Hydroxy-5-(1H-indol-4-yl)-phenyl]-(6-hydroxypyridin-3-yl)-methanone] | – | < 50
17 | < 5.52 | 4.52 to 6.00 | Oc1cc(Nc2cccnc2)cc(-c2cccc3cc[nH]c23)c1 [3-(1H-Indol-7-yl)-5-(pyridin-3-ylamino)-phenol] | < 50 | < 50
18 | 4.52 to 6.00 | – | Oc1cc(Nc2cccnc2)cc(-c2cccc3cccnc23)c1 [3-(Pyridin-3-ylamino)-5-quinolin-8-yl-phenol] | < 50 | < 50
19 | 4.52 to 6.00 | < 5.52 | Oc1cc(Nc2cccnc2)cc(-c2ccccc2Cl)c1 [2′-Chloro-5-(pyridin-3-ylamino)-biphenyl-3-ol] | < 50 | < 50
20 | 4.52 to 6.00 | 6.00 to 9.00 | O=[N+]([O-])c1cc(Nc2cccnc2)cc(-c2cccc3[nH]ccc23)c1 [[3-(1H-Indol-4-yl)-5-nitro-phenyl]-pyridin-3-yl-amine] | < 50 | < 50
21 | 4.52 to 6.00 | 4.52 to 6.00 | O=C(c1cc(O)cc(-c2cccc3[nH]ccc23)c1)c1cccnc1Cl [(2-Chloro-pyridin-3-yl)-[3-hydroxy-5-(1H-indol-4-yl)-phenyl]-methanone] | < 50 | < 50
22 | 4.52 to 6.00 | 6.00 to 9.00 | Cc1ccc(C(=O)c2cc(O)cc(-c3cccc4[nH]ccc34)c2)cn1 [[3-Hydroxy-5-(1H-indol-4-yl)-phenyl]-(6-methyl-pyridin-3-yl)-methanone] | – | < 50
23 | 4.52 to 6.00 | 4.52 to 6.00 | COc1ccc(Cc2c(O)cc(Nc3cccnc3)cc2-c2cccc3sccc23)cc1 [3-benzo[b]thiophen-4-yl-2-(4-methoxy-benzyl)-5-(pyridin-3-ylamino)-phenol] | < 50 | ≥ 50
24 | 4.52 to 6.00 | 4.52 to 6.00 | Oc1cc(Nc2cccnc2)cc(-c2cccc3[nH]ccc23)c1Cc1ccccc1 [2-Benzyl-3-(1H-Indol-4-yl)-5-(pyridin-3-ylamino)-phenol] | < 50 | < 50
25 | 4.52 to 6.00 | – | ON=C(c1cccnc1)c1cc(O)cc(-c2cccc3[nH]ccc23)c1 [[3-Hydroxy-5-(1H-indol-4-yl)-phenyl]-pyridin-3-yl-methanone oxime] | < 50 | < 50
26 | 6.00 to 9.00 | – | O=C(c1ccc(Cl)nc1)c1cc(O)cc(-c2cccc3[nH]ccc23)c1 [(6-Chloro-pyridin-3-yl)-[3-hydroxy-5-(1H-indol-4-yl)-phenyl]-methanone] | < 50 | ≥ 50
27 | 4.52 to 6.00 | – | O=C(c1cccnc1)c1cc(O)cc(-c2cccc3[nH]cc(C(=O)C(F)(F)F)c23)c1 [2,2,2-Trifluoro-1-{4-[3-hydroxy-5-(pyridine-3-carbonyl)-phenyl]-1H-indol-3-yl}-ethanone] | < 50 | < 50
28 | 6.00 to 9.00 | 4.52 to 6.00 | Oc1cc(Nc2ccc(O)nc2)cc(-c2cccc3[nH]ccc23)c1 [5-[3-Hydroxy-5-(1H-indol-4-yl)-phenylamino]-pyridin-2-ol] | – | < 50
29 | < 5.52 | 4.52 to 6.00 | Cn1ccc2cccc(-c3cc(O)cc(Nc4cccnc4)c3)c21 [3-(1-Methyl-1H-indol-7-yl)-5-(pyridin-3-ylamino)-phenol] | – | < 50
